# ChEMBL document CHEMBL1201862, “PubChem BioAssay data set” (2004)
# Calls of active or inactive are those of the source.
# Legend:
# [1] = target: Dual specificity protein kinase CLK1 (Homo sapiens, UniProt P49759); assay: inhibition of human CLK1 activity – biochemical, cherry-picked samples, selectivity assay for Dyrk1A inhibitor project, dose response (AID 588811)
# BJ [2] = assay: BJ-TERT fibroblast viability loss – cell-based, RAS-independent, luminescence, dose response (AID 1933); format: functional; settings: Homo sapiens
# BJ [3] = assay: cells; format: functional, cell-based; settings: Homo sapiens
# BJ [4] = assay: BJ-TERT-LT-ST fibroblast viability loss – cell-based, RAS-independent, luminescence, dose response (AID 1935); format: functional; settings: Homo sapiens;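 also: BJ fibroblasts immortalized with TERT plus LT and ST oncogenes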
# [5] = DRD fibroblast viability loss – cell-based, non-viral oncogenic, luminescence, dose response (AID 1934); format: functional; settings: Homo sapiens
# [6] = target: T1, Microphthalmia-associated transcription factor (Homo sapiens, UniProt O75030); assay: reducers of TRPM1 reporter luminescence, concentration series – cell-based, SK-MEL-5, cherry-picked, set 3, MITF inhibitor project, dose response (AID 493073); format: functional;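 also: SK-MEL-5 melanoma cells with luciferase driven by the MITF target TRPM1 promoter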
# T1 sequence (O75030 whole entry): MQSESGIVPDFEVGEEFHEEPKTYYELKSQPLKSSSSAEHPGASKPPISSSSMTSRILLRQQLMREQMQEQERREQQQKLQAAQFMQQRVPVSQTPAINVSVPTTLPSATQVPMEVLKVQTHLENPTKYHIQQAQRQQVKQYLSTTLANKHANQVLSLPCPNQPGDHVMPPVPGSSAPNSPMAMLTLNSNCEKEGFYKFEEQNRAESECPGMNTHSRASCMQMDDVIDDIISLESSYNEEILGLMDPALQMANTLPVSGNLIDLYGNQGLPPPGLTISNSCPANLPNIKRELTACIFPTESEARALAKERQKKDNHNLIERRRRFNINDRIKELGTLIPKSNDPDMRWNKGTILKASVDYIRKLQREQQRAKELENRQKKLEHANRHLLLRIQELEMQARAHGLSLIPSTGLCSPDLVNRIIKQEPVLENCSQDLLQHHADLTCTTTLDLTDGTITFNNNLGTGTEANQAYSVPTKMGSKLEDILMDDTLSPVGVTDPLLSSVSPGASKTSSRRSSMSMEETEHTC
# BJ [7] = assay: growth inhibition of engineered Ras-driven BJ cells – cell-based, alamar blue fluorescence, cherrypicked samples, dose response (AID 2631); format: functional; settings: Homo sapiens;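 also: confirmatory dose-response assay in RAS-dependent BJ fibroblasts engineered with TERT, LT and ST, with cytotoxicity read by fluorescence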
# A-375 = assay: proliferation inhibition in MITF-low A375 cells – cell-based, cherry-pick samples, set 2, counter-screen for MITF modulator project, dose response (AID 540335); format: functional; settings: Homo sapiens
# Paired box protein Pax-8 = Paired box protein Pax-8 (Homo sapiens, UniProt Q06710); assay: PAX8 transcriptional activity inhibition in RMG-I – RMG-I cells, luciferase, cherry-pick, dose response (AID 687027); format: functional, cell-based;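 also: luciferase reporter driven by Pax8 target thyroperoxidase promoter measured by SteadyGlo luminescence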
# Streptokinase A = target: T2, Streptokinase A (Streptococcus pyogenes serotype M1, UniProt P10520); assay: viability-normalized secreted streptokinase activity reduction – plasminogen activation absorbance, OD405, dose response (AID 1914); format: functional, Streptococcus pyogenes M1 GAS;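 also: secreted streptokinase activity via plasminogen activation per viability signal from cell pellet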
# T2 sequence (P10520 whole entry): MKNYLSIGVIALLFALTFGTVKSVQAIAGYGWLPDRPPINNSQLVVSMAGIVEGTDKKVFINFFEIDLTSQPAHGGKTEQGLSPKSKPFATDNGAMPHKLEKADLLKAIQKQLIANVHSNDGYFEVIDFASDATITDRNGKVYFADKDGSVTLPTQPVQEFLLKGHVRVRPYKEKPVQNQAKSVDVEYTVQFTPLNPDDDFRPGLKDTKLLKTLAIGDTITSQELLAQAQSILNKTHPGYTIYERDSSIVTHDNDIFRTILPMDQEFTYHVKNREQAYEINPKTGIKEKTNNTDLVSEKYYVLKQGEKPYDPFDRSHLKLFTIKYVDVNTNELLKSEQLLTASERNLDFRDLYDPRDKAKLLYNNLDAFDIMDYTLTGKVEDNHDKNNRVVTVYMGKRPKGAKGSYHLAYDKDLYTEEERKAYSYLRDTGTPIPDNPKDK
# [8] = target: Serine/threonine-protein phosphatase (Candida dubliniensis (strain CD36 / CBS 7987 / NCPF 3949 / NRRLY-17841) (Yeast), UniProt B9W6M3); assay: blockers of CaCl2-induced CDRE-lacZ signaling – S. cerevisiae, luminescence, secondary, dose response (AID 2388); format: functional, cell-based;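 also: yeast reporter cells carrying a calcineurin-responsive lacZ construct stimulated with calcium chloride; luminescent beta-galactosidase reporter signal in whole cells rather than isolated phosphatase activity; potency for inhibition where a drop in reporter signal means calcineurin blockade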
# [9] = target: ATP-dependent molecular chaperone HSP82 (Candida albicans (strain WO-1) (Yeast), UniProt C4YTQ8); assay: steroid-induced GRE reporter decrease in yeast – S. cerevisiae, luminescence, Hsp90 inhibitor project, dose response (AID 2400); format: functional, cell-based;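 also: beta-galactosidase luminescence from glucocorticoid response element reporter as proxy for Hsp90 function; inhibitor potency where signal loss means Hsp90 inhibition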
# [10] = luciferase reporter signal suppression in cells – H4 neuroglioma cells, luminescence, dose response (AID 1990); format: functional, cell-based
# Aminopeptidase N = target: T3, Aminopeptidase N (Plasmodium falciparum FcB1/Columbia, UniProt O96935); assay: malaria alanyl aminopeptidase activity blockers – biochemical, fluorogenic H-Leu-NHMec substrate, 1536-well (AID 1445); parameters: species or system Plasmodium falciparum 3D7, 3D7
# T3 sequence (O96935 whole entry): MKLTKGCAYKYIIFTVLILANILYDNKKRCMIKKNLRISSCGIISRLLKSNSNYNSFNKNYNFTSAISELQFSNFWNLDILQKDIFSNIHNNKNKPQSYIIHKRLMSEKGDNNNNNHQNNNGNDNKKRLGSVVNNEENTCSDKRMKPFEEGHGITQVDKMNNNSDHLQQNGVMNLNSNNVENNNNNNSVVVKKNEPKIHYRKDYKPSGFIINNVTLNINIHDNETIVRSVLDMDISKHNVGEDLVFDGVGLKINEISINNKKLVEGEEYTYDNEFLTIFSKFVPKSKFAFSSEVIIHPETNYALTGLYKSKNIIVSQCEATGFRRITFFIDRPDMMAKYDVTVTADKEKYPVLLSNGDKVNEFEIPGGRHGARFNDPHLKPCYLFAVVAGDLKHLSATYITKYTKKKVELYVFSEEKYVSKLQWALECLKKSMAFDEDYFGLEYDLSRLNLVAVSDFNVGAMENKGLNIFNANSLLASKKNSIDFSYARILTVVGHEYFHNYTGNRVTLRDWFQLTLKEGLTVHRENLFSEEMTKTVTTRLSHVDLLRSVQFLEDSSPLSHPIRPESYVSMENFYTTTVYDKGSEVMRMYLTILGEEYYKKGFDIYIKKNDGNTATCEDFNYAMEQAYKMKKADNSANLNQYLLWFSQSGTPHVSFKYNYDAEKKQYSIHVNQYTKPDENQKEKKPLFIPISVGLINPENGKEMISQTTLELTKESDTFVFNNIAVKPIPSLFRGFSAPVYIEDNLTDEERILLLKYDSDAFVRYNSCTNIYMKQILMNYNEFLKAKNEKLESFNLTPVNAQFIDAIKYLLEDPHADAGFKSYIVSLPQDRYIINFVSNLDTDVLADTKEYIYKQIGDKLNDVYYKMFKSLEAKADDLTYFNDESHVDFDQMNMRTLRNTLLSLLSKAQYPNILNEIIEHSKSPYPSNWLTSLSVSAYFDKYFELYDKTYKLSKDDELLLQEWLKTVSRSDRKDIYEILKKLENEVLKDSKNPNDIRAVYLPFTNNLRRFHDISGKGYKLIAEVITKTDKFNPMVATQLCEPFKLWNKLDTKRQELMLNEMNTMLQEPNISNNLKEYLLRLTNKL
# HEK293 = assay: Fluorescence-based counterscreen for potentiators or agonists of NPY-Y2: cell-based high-throughput dose response assay to identify inhibitors of cyclic nucleotide gated ion channel (CNGC) activity. In this assay, the parental HEK293 cell line transfected with a cyclic-nucleotide gated ion channel (CNGC)-based cAMP sensor is used to measure inhibition of isoproterenol-induced CNGC activity by test compound.; format: functional; settings: Homo sapiens;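 also: stimulus is 1 µM isoproterenol at EC100 plus PDE inhibitor Ro 20-1724 at 25 µM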
# [11] = target: T4, Neuropeptide Y receptor type 2 (Homo sapiens, UniProt P49146); assay: Fluorescence-based cell-based high-throughput dose response assay for agonists of NPY-Y2. [Related pubchem assays: 1703 (Screening assay (CNGC inhibitors).), 1359 (Screening assay (NPY-Y2 potentiators or agonists).), 1304 (Screening assay (NPY-Y1 potentiators or agonists).), 1710 (Screening assay (NPY-Y2 agonists).), 1791 (Summary AID.)]; format: functional
# T4 sequence (P49146 whole entry): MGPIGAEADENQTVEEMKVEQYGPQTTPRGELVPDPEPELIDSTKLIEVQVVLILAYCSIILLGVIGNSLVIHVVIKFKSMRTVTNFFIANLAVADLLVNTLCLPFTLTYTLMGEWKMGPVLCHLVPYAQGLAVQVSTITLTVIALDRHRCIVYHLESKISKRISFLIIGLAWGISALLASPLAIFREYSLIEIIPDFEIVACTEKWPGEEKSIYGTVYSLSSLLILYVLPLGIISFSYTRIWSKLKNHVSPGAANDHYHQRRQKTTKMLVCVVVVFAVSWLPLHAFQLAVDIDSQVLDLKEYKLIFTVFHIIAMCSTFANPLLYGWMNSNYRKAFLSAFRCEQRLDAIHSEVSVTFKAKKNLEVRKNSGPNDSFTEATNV
# [12] = Luminescence Cell-Based Dose Response HTS to Identify Inhibitors of 5'UTR Stem-Loop Driven Prion Protein mRNA Translation in H4 Neuroglioblastoma Cells. [Related pubchem assays: 1827 (Project Summary), 1813 (Primary HTS)]; format: functional
# [13] = alpha-synuclein stem-loop luciferase translation blockers – H4 neuroglioma cells, luminescence, confirmation (AID 1988); format: functional, cell-based
# [14] = CCR5-tropic HIV-1 fusion blockers – cell-based, CCR5-tropic Env, dose response (AID 2279); format: functional
# [15] = target: T5, Neuropeptide Y receptor type 1 (Homo sapiens, UniProt P25929); assay: Fluorescence-based counterscreen for agonists of NPY-Y2: cell-based high-throughput dose response assay for agonists of NPY-Y1.; format: functional
# T5 sequence (P25929 whole entry): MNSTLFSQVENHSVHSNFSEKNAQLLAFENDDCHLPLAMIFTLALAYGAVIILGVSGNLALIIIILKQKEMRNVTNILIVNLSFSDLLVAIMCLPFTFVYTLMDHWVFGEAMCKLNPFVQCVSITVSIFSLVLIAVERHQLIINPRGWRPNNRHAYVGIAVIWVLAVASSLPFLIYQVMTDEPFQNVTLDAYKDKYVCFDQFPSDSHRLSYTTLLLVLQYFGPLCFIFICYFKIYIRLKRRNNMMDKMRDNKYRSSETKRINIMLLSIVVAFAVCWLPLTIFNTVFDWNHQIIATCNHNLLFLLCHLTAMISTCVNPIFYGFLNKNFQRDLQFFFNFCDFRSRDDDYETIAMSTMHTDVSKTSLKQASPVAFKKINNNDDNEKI
# INS1 = assay: INS-1E survival protection against cytokine death – cell-based, luminescence, retest, dose response (AID 449756); format: functional; settings: Rattus norvegicus;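 also: cell death triggered by IL-1 beta plus TNF-alpha plus IFN-gamma mixture; protective hits raise ATP signal compared with cytokine alone wells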
# CAAX prenyl protease 2 = CAAX prenyl protease 2 (Homo sapiens, UniProt Q9Y256); assay: inhibition of Ras-converting CAAX protease Rce1 – biochemical, yeast membranes, quenched-peptide fluorescence, cherry-pick, dose response (AID 588849)
# [16] = blockers of HIV-1 envelope-mediated cell-cell fusion – cherry-pick, dose response (AID 652057); format: functional, cell-based
# [17] = viability loss in CEM21 cells – cell-based, CellTiter-Glo luminescence, cherry-picked, cytotoxicity control for viral fusion inhibitor project, dose response (AID 652042); format: functional;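 also: potency for signal decrease meaning cytotoxicity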
# [18] = blockers of HIV-1 ZM109 envelope-driven cell-cell fusion – HeLa effector, CEM target cells, luciferase, cherry-pick, dose response (AID 652058); format: functional, cell-based;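 also: luciferase signal from HIV-1 Env mediated cell-cell fusion of effector and target cells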
# [19] = off-target signal loss in HeLa-CEM21 co-culture – HeLa F-luc CTL cells, cherry-picked, counter-screen for HIV-1 Env fusion inhibitor project, dose response (AID 652040); format: functional, cell-based;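 also: potency for signal decrease marking cytotoxic or nonspecific inhibition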
# [20] = HIV-1 AD8 envelope cell-cell fusion blockers – cherry-pick, dose response (AID 652062); format: functional, cell-based;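 also: luciferase signal from cell-cell fusion driven by HIV-1 clade B AD8 Env; potency is for inhibitors of fusion seen as a drop in luminescence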
# Sequence of Paired box protein Pax-8 (Q06710 whole entry): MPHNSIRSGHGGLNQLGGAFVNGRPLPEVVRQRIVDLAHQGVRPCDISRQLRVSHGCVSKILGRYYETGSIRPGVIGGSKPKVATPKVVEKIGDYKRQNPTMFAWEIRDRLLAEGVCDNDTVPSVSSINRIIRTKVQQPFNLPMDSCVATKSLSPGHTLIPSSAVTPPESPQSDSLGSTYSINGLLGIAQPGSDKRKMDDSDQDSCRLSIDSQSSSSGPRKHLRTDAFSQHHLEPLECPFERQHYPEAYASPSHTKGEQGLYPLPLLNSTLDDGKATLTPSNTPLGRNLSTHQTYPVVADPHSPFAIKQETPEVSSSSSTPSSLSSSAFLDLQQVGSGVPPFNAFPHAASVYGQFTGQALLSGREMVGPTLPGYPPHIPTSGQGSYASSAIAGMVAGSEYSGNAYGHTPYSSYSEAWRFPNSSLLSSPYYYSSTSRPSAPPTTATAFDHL
# Sequence of Dual specificity protein kinase CLK1 (P49759 whole entry): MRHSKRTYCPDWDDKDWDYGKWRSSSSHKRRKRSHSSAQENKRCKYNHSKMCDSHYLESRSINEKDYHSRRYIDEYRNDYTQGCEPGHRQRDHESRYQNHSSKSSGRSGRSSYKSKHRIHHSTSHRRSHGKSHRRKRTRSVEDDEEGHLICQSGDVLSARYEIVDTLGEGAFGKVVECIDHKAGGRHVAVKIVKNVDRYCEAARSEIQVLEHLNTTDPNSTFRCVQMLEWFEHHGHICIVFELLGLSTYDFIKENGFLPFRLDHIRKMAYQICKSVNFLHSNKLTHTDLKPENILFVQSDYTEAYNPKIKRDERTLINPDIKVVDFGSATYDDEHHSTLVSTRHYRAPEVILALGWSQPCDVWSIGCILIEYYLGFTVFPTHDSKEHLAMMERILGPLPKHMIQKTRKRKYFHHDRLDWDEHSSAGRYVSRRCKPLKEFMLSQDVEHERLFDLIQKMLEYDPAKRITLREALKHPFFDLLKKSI
# Sequence of Serine/threonine-protein phosphatase (B9W6M3 whole entry): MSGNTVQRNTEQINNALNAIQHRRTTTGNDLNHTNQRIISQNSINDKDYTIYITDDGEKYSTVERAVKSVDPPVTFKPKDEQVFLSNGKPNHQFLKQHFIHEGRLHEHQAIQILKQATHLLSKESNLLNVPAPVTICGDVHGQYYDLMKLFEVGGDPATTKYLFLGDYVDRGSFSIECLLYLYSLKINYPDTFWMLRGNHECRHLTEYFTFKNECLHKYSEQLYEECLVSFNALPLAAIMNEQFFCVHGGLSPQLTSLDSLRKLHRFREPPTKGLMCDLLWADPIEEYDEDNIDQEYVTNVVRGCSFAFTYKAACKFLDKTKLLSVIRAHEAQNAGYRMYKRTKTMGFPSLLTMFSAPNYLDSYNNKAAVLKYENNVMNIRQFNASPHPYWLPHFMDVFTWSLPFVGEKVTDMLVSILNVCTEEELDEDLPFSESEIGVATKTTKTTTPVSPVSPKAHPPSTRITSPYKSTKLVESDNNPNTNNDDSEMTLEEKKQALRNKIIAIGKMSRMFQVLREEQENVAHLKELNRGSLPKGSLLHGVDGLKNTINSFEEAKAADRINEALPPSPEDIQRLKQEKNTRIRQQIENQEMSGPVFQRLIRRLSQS
# Sequence of ATP-dependent molecular chaperone HSP82 (C4YTQ8 whole entry): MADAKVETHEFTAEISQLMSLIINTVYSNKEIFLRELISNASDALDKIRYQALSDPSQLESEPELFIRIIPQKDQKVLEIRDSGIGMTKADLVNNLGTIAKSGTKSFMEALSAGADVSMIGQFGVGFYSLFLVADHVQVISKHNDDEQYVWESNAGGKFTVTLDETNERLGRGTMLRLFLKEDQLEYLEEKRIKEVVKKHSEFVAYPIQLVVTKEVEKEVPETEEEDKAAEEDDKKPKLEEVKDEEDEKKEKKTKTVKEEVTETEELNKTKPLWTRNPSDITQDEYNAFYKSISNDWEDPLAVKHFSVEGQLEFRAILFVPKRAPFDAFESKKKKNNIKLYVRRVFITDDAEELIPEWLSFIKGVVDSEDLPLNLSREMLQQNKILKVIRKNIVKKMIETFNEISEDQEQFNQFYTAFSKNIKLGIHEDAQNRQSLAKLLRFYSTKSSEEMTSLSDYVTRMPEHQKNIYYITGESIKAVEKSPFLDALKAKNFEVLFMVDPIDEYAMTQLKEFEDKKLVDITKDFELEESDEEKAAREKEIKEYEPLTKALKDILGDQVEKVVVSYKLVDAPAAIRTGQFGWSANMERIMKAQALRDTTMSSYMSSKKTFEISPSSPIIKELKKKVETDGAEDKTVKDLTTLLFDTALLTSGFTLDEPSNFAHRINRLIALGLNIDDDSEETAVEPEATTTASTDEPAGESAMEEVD
# Sequence of CAAX prenyl protease 2 (Q9Y256 whole entry, the tested form may be a part): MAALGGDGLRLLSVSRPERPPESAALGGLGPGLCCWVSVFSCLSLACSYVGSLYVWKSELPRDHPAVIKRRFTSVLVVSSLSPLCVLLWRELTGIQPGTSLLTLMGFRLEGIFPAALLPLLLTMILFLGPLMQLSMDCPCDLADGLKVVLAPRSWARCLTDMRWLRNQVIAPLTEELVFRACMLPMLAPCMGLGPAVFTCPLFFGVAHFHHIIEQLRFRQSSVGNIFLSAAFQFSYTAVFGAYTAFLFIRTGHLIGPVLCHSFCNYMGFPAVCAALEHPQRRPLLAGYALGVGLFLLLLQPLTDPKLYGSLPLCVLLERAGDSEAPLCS
structure (smiles),measurement,setting,value
Clc1ccc(Nc2nccc(-c3ccc4c(c3)OCO4)n2)cc1,AC50,[1],15.8 µM (active)
Cc1cc(-n2c(SCC(=O)NCCC3=CCCCC3)nc3nnc(C)c-3c2N)ccc1Cl,EC50,BJ [2],6.61 µM (active)
same,EC50,BJ [3],> 150 µM (not active)
same,EC50,BJ [4],> 150 µM (inconclusive)
same,EC50,[5],14 µM (active)
same,AC50,[6],17.1 µM (active)
same,EC50,BJ [7],> 133 µM (inactive)
same,AC50,A-375,37.6 µM (active)
same,AC50,Paired box protein Pax-8,7.33 µM (active)
c1cncc(-c2nc(NCc3ccco3)c3ccccc3n2)c1,AC50,[1],17.9 µM (active)
O=C(c1cc(-c2ccccc2)n[nH]1)N1CCc2c([nH]c3ccccc23)C1c1ccccn1 (stereo not given),EC50,Streptokinase A,26.3 µM (active)
same,EC50,[8],> 180 µM (inactive)
same,EC50,[9],31.2 µM (active)
O=C(Nc1cc(S(=O)(=O)N2CCCCC2)ccc1Cl)c1ccccc1NS(=O)(=O)c1ccc(F)cc1,EC50,[10],13.8 µM (active)
same,IC50,Aminopeptidase N,44.9 µM (active)
same,EC50,HEK293,4.53 µM (active)
same,EC50,[11],25.6 µM (not active)
same,EC50,[12],> 60 µM (not active)
same,EC50,[13],13.7 µM (active)
same,IC50,[14],2 µM (active)
same,EC50,[15],12.7 µM (not active)
same,EC50,BJ [7],> 133 µM (inactive)
same,AC50,INS1,3.42 µM (active)
same,AC50,CAAX prenyl protease 2,20.7 µM (active)
same,AC50,[16],28.4 µM (active)
same,AC50,[17],32.9 µM (active)
same,AC50,[18],25.6 µM (active)
same,AC50,Paired box protein Pax-8,5.08 µM (active)
same,AC50,[19],6.21 µM (active)
same,AC50,[20],10.8 µM (active)
